For 13 molecules, IC50 and EC50 results are on record in patent publication US20230135152A1 (ACURASTEM INCORPORATED, priority 2020, published 2023).

Test [1] concerns the target T1, PIKFYVE (Homo sapiens, UniProt Q9Y2I7). The experiment in a line: PIKFYVE assay (luciferase ADP-Glo kinase assay, Promega). It is filed as biochemical. To be noted: Table 3. In a few lines: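 ADP generated in the kinase reaction was detected by ADP-Glo luminescence (luciferase).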
(In ADP-Glo the light output rises with the ADP produced.)

For test [2], the target named is T1, PIKFYVE. In words: Cell-based Pikfyve inhibition activity assay (EEA1 staining, mean vesicle size in BJ fibroblast cells). To be noted: Table 4, 4 hours treatment, 3 μM Apilimod = 100% inhibition. In a few lines:
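BJ fibroblasts treated 4 h at 37° C with eleven 3-fold doses (0.03-3000 nM), then fixed and stained for EEA1. Confocal images (20×, 16 tiles/well) analysed for mean vesicle size. Normalised to 0.5% DMSO (0%) and 3 μM apilimod (100%); dose-response fitted with variable slope.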

T1 sequence (Q9Y2I7 whole entry): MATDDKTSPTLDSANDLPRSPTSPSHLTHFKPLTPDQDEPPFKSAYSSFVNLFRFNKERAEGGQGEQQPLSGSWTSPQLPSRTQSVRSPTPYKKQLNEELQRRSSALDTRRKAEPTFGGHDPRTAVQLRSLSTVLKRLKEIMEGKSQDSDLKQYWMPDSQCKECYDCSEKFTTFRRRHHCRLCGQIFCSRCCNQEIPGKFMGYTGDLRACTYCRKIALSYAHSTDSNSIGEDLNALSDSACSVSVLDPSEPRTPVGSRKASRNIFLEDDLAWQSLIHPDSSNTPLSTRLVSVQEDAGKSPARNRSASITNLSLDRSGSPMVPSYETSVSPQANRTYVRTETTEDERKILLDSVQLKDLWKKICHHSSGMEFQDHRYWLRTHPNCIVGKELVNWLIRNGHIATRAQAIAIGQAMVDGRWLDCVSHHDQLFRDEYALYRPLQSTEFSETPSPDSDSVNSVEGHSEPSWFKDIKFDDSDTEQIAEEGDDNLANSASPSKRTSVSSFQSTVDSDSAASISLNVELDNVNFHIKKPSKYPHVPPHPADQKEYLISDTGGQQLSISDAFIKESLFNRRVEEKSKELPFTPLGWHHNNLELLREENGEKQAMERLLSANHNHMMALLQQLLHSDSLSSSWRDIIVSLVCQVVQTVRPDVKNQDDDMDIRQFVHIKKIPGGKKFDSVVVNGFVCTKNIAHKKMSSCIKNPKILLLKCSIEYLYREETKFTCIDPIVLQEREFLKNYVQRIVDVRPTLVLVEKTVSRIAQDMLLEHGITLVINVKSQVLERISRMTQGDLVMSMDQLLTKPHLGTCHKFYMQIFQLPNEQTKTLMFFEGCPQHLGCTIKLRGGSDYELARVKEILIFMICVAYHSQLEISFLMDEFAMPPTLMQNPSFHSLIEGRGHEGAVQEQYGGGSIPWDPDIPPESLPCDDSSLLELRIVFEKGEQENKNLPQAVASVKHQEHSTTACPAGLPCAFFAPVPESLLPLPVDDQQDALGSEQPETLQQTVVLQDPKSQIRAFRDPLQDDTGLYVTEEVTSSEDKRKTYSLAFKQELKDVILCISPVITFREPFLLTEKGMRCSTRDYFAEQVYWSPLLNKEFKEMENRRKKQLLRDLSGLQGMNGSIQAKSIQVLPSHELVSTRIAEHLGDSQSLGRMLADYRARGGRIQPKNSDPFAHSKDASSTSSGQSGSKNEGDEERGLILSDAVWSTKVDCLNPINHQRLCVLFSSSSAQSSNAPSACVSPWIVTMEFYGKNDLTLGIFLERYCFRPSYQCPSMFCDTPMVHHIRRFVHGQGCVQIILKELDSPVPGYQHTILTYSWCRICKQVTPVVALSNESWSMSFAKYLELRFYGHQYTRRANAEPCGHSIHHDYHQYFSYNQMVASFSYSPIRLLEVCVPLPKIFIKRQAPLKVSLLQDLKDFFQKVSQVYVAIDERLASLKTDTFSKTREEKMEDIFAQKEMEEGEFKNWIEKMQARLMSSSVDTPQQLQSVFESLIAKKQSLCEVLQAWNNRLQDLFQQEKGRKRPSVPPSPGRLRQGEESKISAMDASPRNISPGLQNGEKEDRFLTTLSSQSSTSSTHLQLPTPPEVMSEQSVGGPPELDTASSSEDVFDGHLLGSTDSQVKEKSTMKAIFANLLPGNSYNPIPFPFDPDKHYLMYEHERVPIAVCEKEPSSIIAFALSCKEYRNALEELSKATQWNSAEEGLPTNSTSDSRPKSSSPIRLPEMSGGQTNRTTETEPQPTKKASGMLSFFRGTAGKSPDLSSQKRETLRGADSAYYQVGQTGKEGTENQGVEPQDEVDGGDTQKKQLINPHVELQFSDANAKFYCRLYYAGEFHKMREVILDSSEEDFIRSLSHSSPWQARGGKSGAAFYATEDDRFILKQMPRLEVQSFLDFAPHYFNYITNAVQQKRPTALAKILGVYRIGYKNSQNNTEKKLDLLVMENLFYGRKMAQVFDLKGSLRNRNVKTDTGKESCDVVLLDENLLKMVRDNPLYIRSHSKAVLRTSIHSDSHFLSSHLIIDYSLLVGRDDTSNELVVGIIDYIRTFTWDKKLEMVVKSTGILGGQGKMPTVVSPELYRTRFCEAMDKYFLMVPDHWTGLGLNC

By IC50 is commonly meant the midpoint of a concentration-inhibition curve. Low values mean inhibition by little substance, high ones a need for much substance. The term EC50 denotes the concentration needed to bring the measured effect to its halfway point. `COC(Cc1ccccc1)c1nc(N2CCOCC2)cc(-n2ccc(-c3ccccc3)n2)n1` (centres unmarked) [Compound 177, 4-(2-(1-methoxy-2-phenylethyl)-6-(3-phenyl-1H-pyrazol-1-yl)pyrimidin-4-yl)morpholine]: the concentration for half-maximal inhibition (IC50) against PIKFYVE [1] fell in the range of 10 to 100 nM. Also, the concentration giving a half-maximal response (EC50) on PIKFYVE [2] was in the range of 0.5 to 5 µM.

For the molecule `Cn1cc(CCOc2nc(N3CCOCC3)cc(-n3ccc(C(=O)O)n3)n2)cn1` [Compound 178, 1-(2-(2-(1-methyl-1H-pyrazol-4-yl)ethoxy)-6-morpholinopyrimidin-4-yl)-1H-pyrazole-3-carboxylic acid], the IC50 against PIKFYVE [1] lay in the range of 100 to 5000 nM. Moreover, the EC50 on PIKFYVE [2] was greater than 5 µM.

`Cn1cc(CCOc2nc(N3CCOCC3)cc(-n3ccc(-c4cccc(CO)c4)n3)n2)cn1` [Compound 179, (3-(1-(2-(2-(1-methyl-1H-pyrazol-4-yl)ethoxy)-6-morpholinopyrimidin-4-yl)-1H-pyrazol-3-yl)phenyl)methanol] gave an IC50 on PIKFYVE [1] of less than 3 nM. The molecule further returned a concentration giving a half-maximal response (EC50) on PIKFYVE [2] of less than 0.02 µM.

The molecule `Cc1cccc(-c2ccn(-c3cc(N4CCOCC4)nc(OCCc4cnn(CCO)c4)n3)n2)c1` [Compound 180, 2-(4-(2-((4-morpholino-6-(3-(m-tolyl)-1H-pyrazol-1-yl)pyrimidin-2-yl)oxy)ethyl)-1H-pyrazol-1-yl)ethan-1-ol] registered an IC50 against PIKFYVE [1] of less than 3 nM. On PIKFYVE [2], this molecule gave an EC50 of 0.02 to 0.1 µM.

As to `N#CCC(O)c1nc(N2CCOCC2)cc(-n2ccc(-c3ccccc3)n2)n1` (centres unmarked) [Compound 181, 3-hydroxy-3-(4-morpholino-6-(3-phenyl-1H-pyrazol-1-yl)pyrimidin-2-yl)propanenitrile], at PIKFYVE [1], the IC50 was in the range of 10 to 100 nM. Moreover, the 50% effective concentration (EC50) at PIKFYVE [2] is 0.5 to 5 µM.

Molecule `COC(CC#N)c1nc(N2CCOCC2)cc(-n2ccc(-c3ccccc3)n2)n1` (centres unmarked) [Compound 182, 3-methoxy-3-(4-morpholino-6-(3-phenyl-1H-pyrazol-1-yl)pyrimidin-2-yl)propanenitrile] came in with an IC50 against PIKFYVE [1] of 10 to 100 nM. The same molecule came in with a half-maximal effective concentration (EC50) on PIKFYVE [2] of 0.5 to 5 µM.

`OC(c1ccccc1)c1nc(N2CCOCC2)cc(-n2ccc(-c3ccccc3)n2)n1` (centres unmarked) [Compound 183, (4-morpholino-6-(3-phenyl-1H-pyrazol-1-yl)pyrimidin-2-yl)(phenyl)methanol] returned an IC50 on PIKFYVE [1] of 10 to 100 nM. Further, the EC50 at PIKFYVE [2] lay in the range of 0.1 to 0.5 µM.

The molecule `Cn1cc(C(O)c2nc(N3CCOCC3)cc(-n3ccc(-c4ccccc4)n3)n2)cn1` (centres unmarked) [Compound 184, (1-methyl-1H-pyrazol-4-yl)(4-morpholino-6-(3-phenyl-1H-pyrazol-1-yl)pyrimidin-2-yl)methanol] showed a 50% inhibitory concentration (IC50) on PIKFYVE [1] of 10 to 100 nM. Besides, at PIKFYVE [2], the half-maximal effective concentration (EC50) fell in the range of 0.1 to 0.5 µM.

As for `Cc1cccc(-c2ccn(-c3cc(N4CCOCC4)nc(NC(=O)Cc4cnn(C)c4)n3)n2)c1` [Compound 186, 2-(1-methyl-1H-pyrazol-4-yl)-N-(4-morpholino-6-(3-(m-tolyl)-1H-pyrazol-1-yl)pyrimidin-2-yl)acetamide], the IC50 at PIKFYVE [1] is less than 3 nM. The molecule also had an EC50 at PIKFYVE [2] of 0.1 to 0.5 µM.

`Cc1cccc(-c2ccn(-c3cc(N4CCOCC4)nc(NC(=O)CCc4cnn(C)c4)n3)n2)c1` [Compound 187]: the IC50 on PIKFYVE [1] was less than 3 nM. At PIKFYVE [2], the EC50 lay in the range of 0.02 to 0.1 µM.

`Cc1cccc(-c2ccn(-c3cc(N4CCOCC4)nc(NC(=O)CC4CC4)n3)n2)c1` [Compound 188, 2-cyclopropyl-N-(4-morpholino-6-(3-(m-tolyl)-1H-pyrazol-1-yl)pyrimidin-2-yl)acetamide]: the half-inhibitory concentration (IC50) against PIKFYVE [1] was less than 3 nM. In addition, at PIKFYVE [2], the EC50 was 0.1 to 0.5 µM.

At PIKFYVE [1], `Cn1cc(CCOc2nc(N3CCOCC3)cc(-n3ccc(-c4ccccc4)n3)n2)cn1` [Compound 189, 4-(2-(2-(1-methyl-1H-pyrazol-4-yl)ethoxy)-6-(3-phenyl-1H-pyrazol-1-yl)pyrimidin-4-yl)morpholine] returned a concentration for half-maximal inhibition (IC50) of less than 3 nM. Also, the 50% effective concentration (EC50) at PIKFYVE [2] was 0.02 to 0.1 µM.

`Cc1cccc(-c2ccn(-c3cc(N4CCOCC4)nc(OCCc4cnn(C)c4)n3)n2)n1` [Compound 190, 4-(2-(2-(1-methyl-1H-pyrazol-4-yl)ethoxy)-6-(3-(6-methylpyridin-2-yl)-1H-pyrazol-1-yl)pyrimidin-4-yl)morpholine] gave an IC50 on PIKFYVE [1] of 3 to 10 nM. The EC50 at PIKFYVE [2] lay within 0.1 to 0.5 µM.
